Laboratory results published in patent publication US9469650B2, “Melampomagnolide B derivatives” (BOARD OF TRUSTEES OF THE UNIVERSITY OF ARKANSAS, priority 2013, dated 2016).
Where two headings read alike, the source gives them in different places.

Assays:
[1] = tested on: SK-MEL-28; assay: panel of 60 human tumor cell lines, growth inhibition (Melanoma); settings: Homo sapiens; for GI50: SK-MEL-28; for CC50: SK-MEL-28, read-out: LC50; for IC (TGI): SK-MEL-28, read-out: TGI
[2] = tested on: CCRF-CEM; assay: panel of 60 human tumor cell lines, growth inhibition (Leukemia); settings: Homo sapiens; for CC50: read-out: LC50; for IC (TGI): read-out: TGI
[3] = tested on: OVCAR-3; assay: panel of 60 human tumor cell lines, growth inhibition (Ovarian Cancer); settings: for GI50 / Percent Growth: OVCAR-3; for CC50: OVCAR-3, read-out: LC50
[4] = tested on: UACC-62; assay: panel of 60 human tumor cell lines, growth inhibition (Melanoma); settings: Homo sapiens; for GI50: UACC-62; for CC50: UACC-62, read-out: LC50; for IC (TGI): UACC-62, read-out: TGI
[5] = tested on: SN12C; assay: panel of 60 human tumor cell lines, growth inhibition (Renal Cancer); settings: Homo sapiens; for CC50: read-out: LC50; for IC (TGI): read-out: TGI
[6] = tested on: HCT-116; assay: panel of 60 human tumor cell lines, growth inhibition (Colon Cancer); settings: Homo sapiens; for CC50: HCT-116, read-out: LC50; for IC (TGI): HCT-116, read-out: TGI
[7] = tested on: OVCAR-8; assay: panel of 60 human tumor cell lines, growth inhibition (Ovarian Cancer); settings: Homo sapiens; for GI50: OVCAR-8; for CC50: OVCAR-8, read-out: LC50; for IC (TGI): OVCAR-8, read-out: TGI
[8] = tested on: HL-60(TB)
[9] = tested on: TK-10; assay: panel of 60 human tumor cell lines, growth inhibition (Renal Cancer); settings: Homo sapiens; for CC50: TK-10, read-out: LC50; for IC (TGI): TK-10, read-out: TGI
[10] = tested on: KM12; assay: panel of 60 human tumor cell lines, growth inhibition (Colon Cancer); settings: for GI50 / CC50: Homo sapiens; for CC50: KM12, read-out: LC50
[11] = tested on: SNB-75; assay: panel of 60 human tumor cell lines, growth inhibition (CNS Cancer); settings: Homo sapiens; for GI50: SNB-75; for CC50: SNB-75, read-out: LC50; for IC (TGI): SNB-75, read-out: TGI
[12] = tested on: A549/ATCC; assay: panel of 60 human tumor cell lines, growth inhibition (Non-Small Cell Lung Cancer); settings: Homo sapiens; for CC50: A549, read-out: LC50; for IC (TGI): A549, read-out: TGI
[13] = tested on: SR; assay: panel of 60 human tumor cell lines, growth inhibition (Leukemia); settings: Homo sapiens; for CC50: read-out: LC50; for IC (TGI): read-out: TGI
[14] = tested on: HT29; assay: panel of 60 human tumor cell lines, growth inhibition (Colon Cancer); settings: for Percent Growth: HT29; for GI50 / CC50 / IC (TGI): Homo sapiens; for GI50: HT-29; for CC50: HT-29, read-out: LC50; for IC (TGI): HT-29, read-out: TGI
[15] = tested on: SK-MEL-2; assay: panel of 60 human tumor cell lines, growth inhibition (Melanoma); settings: Homo sapiens; for GI50: SK-MEL-2; for CC50: SK-MEL-2, read-out: LC50; for IC (TGI): SK-MEL-2, read-out: TGI
[16] = tested on: MDA-MB-468; assay: panel of 60 human tumor cell lines, growth inhibition (Breast Cancer); settings: Homo sapiens; for GI50: MDA-MB-468; for CC50: MDA-MB-468, read-out: LC50; for IC (TGI): MDA-MB-468, read-out: TGI
[17] = tested on: MDA-MB-231/ATCC; assay: as above; settings: Homo sapiens; for GI50: MDA-MB-231; for CC50: MDA-MB-231, read-out: LC50; for IC (TGI): MDA-MB-231, read-out: TGI

In the case of `C=C1C(=O)O[C@H]2[C@H]1CC/C(COC(=O)NCCN1CCCC1)=C\CC[C@@]1(C)O[C@@H]21` [JVM 59, ((1aR,7aS,10aS,10bS,E)-1a-methyl-8-methylene-9-oxo-1a,2,3,6,7,7a,8,9,10a,10b-decahydrooxireno[2′,3′:9,10]cyclodeca[1,2-b]furan-5-yl)methyl-(2-(pyrrolidin-1-yl)ethyl)carbamate], the GI50 [1] is reported as 12.3 µM, the CC50 [1] is reported as 52 µM and the IC (TGI) [1] is reported as 25.3 µM. It also gave a GI50 ([2]; 5-dose assay) of 2.49 µM, a GI50 ([2]; five dose) of 2.49 µM and a CC50 [2] of 64.3 µM. For the same molecule, the IC (TGI) [2] was 9.12 µM, the GI50 ([3]; Homo sapiens) was 8.41 µM and the CC50 ([3]; Homo sapiens) was 46.4 µM. The IC (TGI) ([3]; Homo sapiens, OVCAR-3, read-out: TGI) was 20.8 µM, the “Percent Growth” value ([3]; Log10 Concentration −4.0) was −98% and the “Percent Growth” value ([3]; Log10 Concentration −5.0) was 46%. For the same molecule, the “Percent Growth” value ([3]; Log10 Concentration −6.0) was 102%, the “Percent Growth” value ([3]; Log10 Concentration −7.0) was 100% and the “Percent Growth” value ([3]; Log10 Concentration −8.0) was 101%. The GI50 [4] was 13.3 µM, the CC50 [4] was 55.8 µM and the IC (TGI) [4] was 27.3 µM. It also gave a GI50 [5] of 17.7 µM, a CC50 [5] of 85.5 µM and an IC (TGI) [5] of 39 µM. For the same molecule, the GI50 ([6]; HCT-116, HCT-116, five dose) was 3.18 µM, the GI50 ([6]; HCT-116, HCT-116, 5-dose assay) was 3.18 µM and the CC50 [6] was 38.2 µM. The IC (TGI) [6] was 12.7 µM, the GI50 [7] was 13.4 µM and the CC50 [7] was 72.2 µM. For the same molecule, the IC (TGI) [7] was 31.1 µM, the “Percent Growth” value ([8]; Log10 Concentration −4.0) was −63% and the “Percent Growth” value ([8]; Log10 Concentration −5.0) was 22%. For the same molecule, the “Percent Growth” value ([8]; Log10 Concentration −6.0) was 95%, the “Percent Growth” value ([8]; Log10 Concentration −7.0) was 96% and the “Percent Growth” value ([8]; Log10 Concentration −8.0) was 88%. It also gave a GI50 ([9]; TK-10, TK-10, five dose) of 3.11 µM, a GI50 ([9]; TK-10, TK-10, 5-dose assay) of 3.11 µM and a CC50 [9] of 40.2 µM. For the same molecule, the IC (TGI) [9] was 14.1 µM, the GI50 ([10]; KM12) was 23.9 µM and the CC50 [10] was > 100 µM. For the same molecule, the TGI ([10]; KM12, five dose) was 7.00E−5, the “Percent Growth” value ([10]; KM12, Log10 Concentration −4.0) was −17% and the “Percent Growth” value ([10]; KM12, Log10 Concentration −5.0) was 90%. For the same molecule, the “Percent Growth” value ([10]; KM12, Log10 Concentration −6.0) was 96%, the “Percent Growth” value ([10]; KM12, Log10 Concentration −7.0) was 95% and the “Percent Growth” value ([10]; KM12, Log10 Concentration −8.0) was 96%. For the same molecule, the GI50 [11] was 18 µM, the CC50 [11] was > 100 µM and the IC (TGI) [11] was 79.3 µM. For the same molecule, the GI50 ([12]; A549) was 27.6 µM, the CC50 [12] was > 100 µM and the IC (TGI) [12] was 96.5 µM. For the same molecule, the GI50 [13] was 10.2 µM, the CC50 [13] was > 100 µM and the IC (TGI) [13] was 39.3 µM. For the same molecule, the “Percent Growth” value ([14]; Log10 Concentration −4.0) was −76%, the “Percent Growth” value ([14]; Log10 Concentration −5.0) was 59% and the “Percent Growth” value ([14]; Log10 Concentration −6.0) was 99%. The “Percent Growth” value ([14]; Log10 Concentration −7.0) was 101%, the “Percent Growth” value ([14]; Log10 Concentration −8.0) was 98% and the GI50 [14] was 11.7 µM. It also gave a CC50 [14] of 64.4 µM, an IC (TGI) [14] of 27.4 µM and a GI50 [15] of 14 µM. For the same molecule, the CC50 [15] was 62.4 µM, the IC (TGI) [15] was 29.5 µM and the GI50 [16] was 2.3 µM. For the same molecule, the CC50 [16] was 42.9 µM, the IC (TGI) [16] was 9.06 µM and the GI50 [17] was 15.2 µM. The CC50 [17] was 61.6 µM and the IC (TGI) [17] was 30.6 µM.
With `C=C1C(=O)O[C@H]2[C@H]1CC/C(COC(=S)n1ccnc1)=C\CC[C@@]1(C)O[C@@H]21` [JVM 66] the GI50 [1] was 15.7 µM, the CC50 [1] was 99.3 µM and the IC (TGI) [1] was 39.5 µM. For the same molecule, the GI50 ([2]; NCI five dose) was 3.38 µM, the CC50 [2] was > 100 µM and the IC (TGI) [2] was 16.6 µM. The GI50 ([3]; Homo sapiens) was 10.4 µM, the CC50 ([3]; Homo sapiens) was 49.2 µM and the “Percent Growth” value ([3]; Log10 Concentration −4.0) was −96%. For the same molecule, the “Percent Growth” value ([3]; Log10 Concentration −5.0) was 53%, the “Percent Growth” value ([3]; Log10 Concentration −6.0) was 103% and the “Percent Growth” value ([3]; Log10 Concentration −7.0) was 130%. The “Percent Growth” value ([3]; Log10 Concentration −8.0) was 101%, the GI50 [4] was 13.9 µM and the CC50 [4] was 74.8 µM. It also gave an IC (TGI) [4] of 32.3 µM, a GI50 [5] of 13.7 µM and a CC50 [5] of 85.3 µM. For the same molecule, the IC (TGI) [5] was 18.8 µM, the GI50 ([6]; HCT-116, HCT-116, NCI five dose) was 2.47 µM and the CC50 [6] was 33 µM. The IC (TGI) [6] was 7.03 µM, the GI50 [7] was 11.4 µM and the CC50 [7] was > 100 µM. The IC (TGI) [7] was > 100 µM, the “Percent Growth” value ([8]; Log10 Concentration −4.0) was −62% and the “Percent Growth” value ([8]; Log10 Concentration −5.0) was 16%. The “Percent Growth” value ([8]; Log10 Concentration −6.0) was 102%, the “Percent Growth” value ([8]; Log10 Concentration −7.0) was 101% and the “Percent Growth” value ([8]; Log10 Concentration −8.0) was 95%. The GI50 ([9]; TK-10, TK-10, NCI five dose) was 10.5 µM, the CC50 [9] was 58.2 µM and the IC (TGI) [9] was 24.8 µM. For the same molecule, the GI50 ([10]; KM12) was > 100 µM, the CC50 [10] was > 100 µM and the “Percent Growth” value ([10]; KM12, Log10 Concentration −4.0) was 60%. For the same molecule, the “Percent Growth” value ([10]; KM12, Log10 Concentration −5.0) was 99%, the “Percent Growth” value ([10]; KM12, Log10 Concentration −6.0) was 99% and the “Percent Growth” value ([10]; KM12, Log10 Concentration −7.0) was 102%. The “Percent Growth” value ([10]; KM12, Log10 Concentration −8.0) was 100%, the TGI ([10]; KM12, NCI five dose) was >1.00E−4 and the GI50 [11] was 39.3 µM. For the same molecule, the CC50 [11] was > 100 µM, the IC (TGI) [11] was > 106 µM and the CC50 [12] was > 100 µM. The IC (TGI) [12] was 106 µM, the GI50 [13] was 6.17 µM and the CC50 [13] was > 100 µM. The IC (TGI) [13] was 38.5 µM, the “Percent Growth” value ([14]; Log10 Concentration −4.0) was −70% and the “Percent Growth” value ([14]; Log10 Concentration −5.0) was 60%. The “Percent Growth” value ([14]; Log10 Concentration −6.0) was 105%, the “Percent Growth” value ([14]; Log10 Concentration −7.0) was 100% and the “Percent Growth” value ([14]; Log10 Concentration −8.0) was 99%. It also gave a GI50 [14] of 12 µM, a CC50 [14] of 69.9 µM and an IC (TGI) [14] of 29 µM. It also gave a GI50 [15] of 16.4 µM, a CC50 [15] of 93 µM and an IC (TGI) [15] of 39.6 µM. For the same molecule, the GI50 [16] was 3.55 µM, the CC50 [16] was > 100 µM and the IC (TGI) [16] was 28.5 µM. It also gave a GI50 [17] of 15.8 µM, a CC50 [17] of 75.7 µM and an IC (TGI) [17] of 34.6 µM.
